# Legend:
# Assay in all cases: relative viability (nuclei count vs DMSO), 5 days (fraction); higher = more cells survive
# [1] = test system: COR-L23
# Procedure, shortened: (§1)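 Lung cancer cell lines in 1536-well plates were dosed by pin tool the day after seeding, either with one drug alone or with a fixed anchor-drug dose plus five library-drug doses (not always all listed) in √10 steps. After 5 days, cells were fixed and their nuclei stained in one step (final 0.05% Triton X-100, 1% formaldehyde, 1 ug/ml Hoechst), then counted on 4× images. Relative viability is the nuclei count in treated wells divided by that in vehicle wells. Values are medians of duplicate plates.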
# [2] = test system: NCI-H1975
# Procedure, shortened: as §1
# [3] = test system: 201T
# Procedure, shortened: as §1
# [4] = test system: HCC-827
# Procedure, shortened: as §1
# [5] = test system: HCC-15
# Procedure, shortened: as §1
# [6] = test system: EKVX
# Procedure, shortened: as §1
# [7] = test system: NCI-H596
# Procedure, shortened: as §1
# [8] = test system: NCI-H1437
# Procedure, shortened: as §1
# [9] = test system: NCI-H441
# Procedure, shortened: as §1
# [10] = test system: NCI-H1792
# Procedure, shortened: as §1
# [11] = test system: NCI-H838
# Procedure, shortened: as §1
# [12] = test system: NCI-H650
# Procedure, shortened: as §1
# [13] = test system: A-427
# Procedure, shortened: as §1
# [14] = test system: LK-2
# Procedure, shortened: as §1
# [15] = test system: SW 900
# Procedure, shortened: as §1
# [16] = test system: NCI-H520
# Procedure, shortened: as §1
# [17] = test system: HCC-44
# Procedure, shortened: as §1
# [18] = test system: NCI-H522
# Procedure, shortened: as §1
# [19] = test system: NCI-H23
# Procedure, shortened: as §1
# [20] = test system: SK-MES-1
# Procedure, shortened: as §1
# [21] = test system: LCLC-103H
# Procedure, shortened: as §1
# [22] = test system: COR-L 105
# Procedure, shortened: as §1
# [23] = test system: HARA
# Procedure, shortened: as §1
# [24] = test system: NCI-H1666
# Procedure, shortened: as §1
smiles,measurement,setting,value
C[C@@H]1CN(CC(=O)Nc2ccc3c(c2)Cc2cccc(-c4cc(=O)cc(N5CCOCC5)o4)c2S3)C[C@H](C)O1 + Nc1nc2[nH]cc(CCc3ccc(C(=O)N[C@@H](CCC(=O)O)C(=O)O)cc3)c2c(=O)[nH]1 [Pemetrexed] (partner 0.2 µM),relative viability,[1]; first compound 0.04 µM,0.189
same,relative viability,[1]; first compound 0.1265 µM,0.204
same,relative viability,[1]; first compound 0.4 µM,0.203
same,relative viability,[1]; first compound 4 µM,0.206
same,relative viability,[2]; first compound 0.04 µM,0.268
same,relative viability,[2]; first compound 0.1265 µM,0.263
same,relative viability,[2]; first compound 0.4 µM,0.303
same,relative viability,[2]; first compound 4 µM,0.274
same,relative viability,[3]; first compound 0.04 µM,0.329
same,relative viability,[3]; first compound 0.1265 µM,0.319
same,relative viability,[3]; first compound 0.4 µM,0.295
same,relative viability,[3]; first compound 4 µM,0.314
same,relative viability,[4]; first compound 0.04 µM,0.253
same,relative viability,[4]; first compound 0.1265 µM,0.247
same,relative viability,[4]; first compound 0.4 µM,0.247
same,relative viability,[4]; first compound 4 µM,0.3
same,relative viability,[5]; first compound 0.04 µM,0.212
same,relative viability,[5]; first compound 0.1265 µM,0.203
same,relative viability,[5]; first compound 0.4 µM,0.224
same,relative viability,[5]; first compound 4 µM,0.212
same,relative viability,[6]; first compound 0.04 µM,0.376
same,relative viability,[6]; first compound 0.1265 µM,0.42
same,relative viability,[6]; first compound 0.4 µM,0.31
same,relative viability,[6]; first compound 4 µM,0.369
same,relative viability,[7]; first compound 0.04 µM,0.548
same,relative viability,[7]; first compound 0.1265 µM,0.535
same,relative viability,[7]; first compound 0.4 µM,0.429
same,relative viability,[7]; first compound 4 µM,0.481
same,relative viability,[8]; first compound 0.04 µM,0.402
same,relative viability,[8]; first compound 0.1265 µM,0.338
same,relative viability,[8]; first compound 0.4 µM,0.336
same,relative viability,[8]; first compound 4 µM,0.335
same,relative viability,[9]; first compound 0.04 µM,0.281
same,relative viability,[9]; first compound 0.1265 µM,0.263
same,relative viability,[9]; first compound 0.4 µM,0.247
same,relative viability,[9]; first compound 4 µM,0.217
same,relative viability,[10]; first compound 0.04 µM,0.72
same,relative viability,[10]; first compound 0.1265 µM,0.766
same,relative viability,[10]; first compound 0.4 µM,0.719
same,relative viability,[10]; first compound 4 µM,0.591
same,relative viability,[11]; first compound 0.04 µM,0.262
same,relative viability,[11]; first compound 0.1265 µM,0.244
same,relative viability,[11]; first compound 0.4 µM,0.243
same,relative viability,[11]; first compound 4 µM,0.236
same,relative viability,[12]; first compound 0.04 µM,0.925
same,relative viability,[12]; first compound 0.1265 µM,0.866
same,relative viability,[12]; first compound 0.4 µM,0.943
same,relative viability,[12]; first compound 4 µM,0.812
same,relative viability,[13]; first compound 0.04 µM,1.05
same,relative viability,[13]; first compound 0.1265 µM,1.04
same,relative viability,[13]; first compound 0.4 µM,1.02
same,relative viability,[13]; first compound 4 µM,0.921
same,relative viability,[14]; first compound 0.04 µM,0.218
same,relative viability,[14]; first compound 0.1265 µM,0.288
same,relative viability,[14]; first compound 0.4 µM,0.237
same,relative viability,[14]; first compound 4 µM,0.217
same,relative viability,[15]; first compound 0.04 µM,0.469
same,relative viability,[15]; first compound 0.1265 µM,0.471
same,relative viability,[15]; first compound 0.4 µM,0.44
same,relative viability,[15]; first compound 4 µM,0.453
same,relative viability,[16]; first compound 0.04 µM,0.844
same,relative viability,[16]; first compound 0.1265 µM,0.666
same,relative viability,[16]; first compound 0.4 µM,0.534
same,relative viability,[16]; first compound 4 µM,0.492
same,relative viability,[17]; first compound 0.04 µM,0.639
same,relative viability,[17]; first compound 0.1265 µM,0.644
same,relative viability,[17]; first compound 0.4 µM,0.639
same,relative viability,[17]; first compound 4 µM,0.63
same,relative viability,[18]; first compound 0.04 µM,0.691
same,relative viability,[18]; first compound 0.1265 µM,0.89
same,relative viability,[18]; first compound 0.4 µM,1.11
same,relative viability,[18]; first compound 4 µM,1.11
same,relative viability,[19]; first compound 0.04 µM,0.685
same,relative viability,[19]; first compound 0.1265 µM,0.696
same,relative viability,[19]; first compound 0.4 µM,0.617
same,relative viability,[19]; first compound 4 µM,0.521
same,relative viability,[20]; first compound 0.04 µM,1.01
same,relative viability,[20]; first compound 0.1265 µM,0.9
same,relative viability,[20]; first compound 0.4 µM,0.808
same,relative viability,[20]; first compound 4 µM,0.808
same,relative viability,[21]; first compound 0.04 µM,0.495
same,relative viability,[21]; first compound 0.1265 µM,0.464
same,relative viability,[21]; first compound 0.4 µM,0.458
same,relative viability,[21]; first compound 4 µM,0.507
same,relative viability,[22]; first compound 0.04 µM,1.15
same,relative viability,[22]; first compound 0.1265 µM,1.07
same,relative viability,[22]; first compound 0.4 µM,1.19
same,relative viability,[22]; first compound 4 µM,1.14
same,relative viability,[23]; first compound 0.04 µM,0.287
same,relative viability,[23]; first compound 0.1265 µM,0.24
same,relative viability,[23]; first compound 0.4 µM,0.192
same,relative viability,[23]; first compound 4 µM,0.214
same,relative viability,[24]; first compound 0.04 µM,0.905
same,relative viability,[24]; first compound 0.1265 µM,0.837
same,relative viability,[24]; first compound 0.4 µM,0.845
same,relative viability,[24]; first compound 4 µM,0.843

# — the supplement of paper PMC10307832
